Data: US20240199542A1, “SUBSTITUTED PYRROLIDIN-2-ONES, SALTS THEREOF AND THEIR USE AS HERBICIDALLY ACTIVE SUBSTANCES” (Bayer Aktiengesellschaft, priority 2021, published 2024)

Experiments:
Format in all cases: in vivo
[1] = test system: Alopecurus myosuroides (ALOMY); experiment: Herbicidal pre-emergence action; conditions: 1280 g/ha, graded after ca. 3 weeks
From the text: (§1) Seeds of mono- and dicotyledonous weed plants and crop plants were sown, in plastic or organic planting pots, in sandy loam and covered with soil. The compounds according to the invention, formulated in the form of wettable powders (WP) or as emulsifiable concentrates (EC), were applied to the surface of the covering soil as aqueous suspension or emulsion, with the addition of 0.5% of an additive, at an application rate of 600 1 of water/ha (converted).
(§2) Following treatment, the pots were placed in a greenhouse and kept under optimum growth conditions for the test plants. The visual grading of the damage to the test plants was carried out after ca. 3 weeks in comparison to untreated controls (herbicidal effect in percent (%): 100% effect=plants have died off, 0% effect=as control plants).
(§3) Tables A1 to A16, below, show the effects of selected compounds of the general formula (I) according to table 1 on various harmful plants and an application rate corresponding to 1280 g/ha or lower obtained by the experimental procedure mentioned above.

[2] = test system: Avena fatua (AVEFA); experiment: Herbicidal pre-emergence action; conditions: 1280 g/ha, graded after ca. 3 weeks
From the text: as §1, §2, §3

[3] = test system: Lolium multiflorum (LOLMU); experiment: Herbicidal pre-emergence action; conditions: 1280 g/ha, graded after ca. 3 weeks
From the text: as §1, §2, §3

[4] = test system: Alopecurus myosuroides (ALOMY); experiment: Herbicidal post-emergence action; conditions: 1280 g/ha, assessed after ca. 3 weeks
From the text: (§4) Seeds of mono- and dicotyledonous weed plants and crop plants were sown, in plastic or organic planting pots, in sandy loam, covered with soil and grown in a greenhouse under controlled growth conditions. 2 to 3 weeks after sowing, the test plants were sprayed in the single-leaf stage. The compounds according to the invention, formulated in form of wettable powders (WP) or as emulsifiable concentrates (EC), were sprayed onto the green plant parts as aqueous suspension or emulsion, with the addition of 0.5% of an additive, at an application rate of 600 1 of water/ha (converted). The test plants were placed in the greenhouse for ca. 3 weeks under optimum growth conditions, and then the effect of the preparations was assessed visually in comparison with untreated controls (herbicidal effect in percent (%): 100% effect=plants have died off, 0% effect=as control plants).
(§5) Tables B1 to B16 below show the effects of selected compounds of the general formula (I) according to table 1 on various harmful plants and an application rate corresponding to 1280 g/ha or 320 g/ha obtained by the experimental procedure mentioned above.

[5] = test system: Avena fatua (AVEFA); experiment: Herbicidal post-emergence action; conditions: 1280 g/ha, assessed after ca. 3 weeks
From the text: as §4, §5

[6] = test system: Echinochloa crus-galli (ECHCG); experiment: Herbicidal post-emergence action; conditions: 1280 g/ha, assessed after ca. 3 weeks
From the text: as §4, §5

[7] = test system: Polygonum convolvulus (POLCO); experiment: Herbicidal pre-emergence action; conditions: 1280 g/ha, graded after ca. 3 weeks
From the text: as §1, §2, §3

[8] = test system: Setaria viridis (SETVI); experiment: Herbicidal pre-emergence action; conditions: 1280 g/ha, graded after ca. 3 weeks
From the text: as §1, §2, §3

[9] = test system: Echinochloa crus-galli (ECHCG); experiment: Herbicidal pre-emergence action; conditions: 1280 g/ha, graded after ca. 3 weeks
From the text: as §1, §2, §3

[10] = test system: Lolium multiflorum (LOLMU); experiment: Herbicidal post-emergence action; conditions: 1280 g/ha, assessed after ca. 3 weeks
From the text: as §4, §5

[11] = test system: Setaria viridis (SETVI); experiment: Herbicidal post-emergence action; conditions: 1280 g/ha, assessed after ca. 3 weeks
From the text: as §4, §5

Structure (SMILES)	Pre-emergence activity against ALOMY [1]	Pre-emergence activity against AVEFA [2]	Pre-emergence activity against LOLMU [3]	Post-emergence activity against ALOMY [4]	Post-emergence activity against AVEFA [5]	Post-emergence activity against ECHCG [6]	Pre-emergence activity against POLCO [7]	Pre-emergence activity against SETVI [8]	Pre-emergence activity against ECHCG [9]	Post-emergence activity against LOLMU [10]	Post-emergence activity against SETVI [11]
CN(C)NC(=O)CC1CCC(=O)N1Cc1cccc(F)c1F (racemic) [Example I-058]	90%	100%	80%	80%	80%	80%					
CCS(=O)(=O)NC(=O)CC1CCC(=O)N1Cc1cccc(F)c1F (racemic) [Example I-072]		80%			80%	80%					
O=C(CC1CCC(=O)N1Cc1cccc(F)c1F)NCc1cccc2ncccc12 (racemic) [Example I-079]					90%						
O=C(CC1CCC(=O)N1Cc1cccc(F)c1F)NC(Cc1c[nH]c2ccccc12)C(=O)O (mixture of isomers) [Example I-068]	80%	80%									
CC1(C)OC(=O)C(C(=O)CC2CCC(=O)N2Cc2cccc(F)c2F)C(=O)O1 (racemic) [Example I-186]						80%	100%				
CC(C)OC(=O)CC1CCC(=O)N1Cc1cccc(F)c1F (racemic) [Example I-025]	90%	100%	90%	80%	80%	90%	80%	80%	90%	80%	
COC(=O)CCNC(=O)CC1CCC(=O)N1Cc1cccc(F)c1F (racemic) [Example I-084]	80%										
O=C(CC1CCC(=O)N1Cc1cccc(F)c1F)NS(=O)(=O)C(F)(F)F (racemic) [Example I-052]		90%				80%				80%	
CNC(=O)CC1CCC(=O)N1Cc1cccc(F)c1F (racemic) [Example I-104]							90%				
CS(=O)(=O)NC(=O)CC1CCC(=O)N1Cc1cccc(Cl)c1F (racemic) [Example I-070]					80%	80%					
CSCCOC(=O)CC1CCC(=O)N1Cc1cccc(F)c1F (racemic) [Example I-010]	80%	100%		80%	90%	100%				90%	90%
O=C(CC1CCC(=O)N1Cc1cccc(F)c1F)OCC[S+]([O-])c1ccc(Cl)cc1 (racemic) [Example I-029]	80%	100%	80%	80%	90%	90%		80%	90%	80%	
COC(=O)CN(C)C(=O)CC1CCC(=O)N1Cc1cccc(F)c1F (racemic) [Example I-053]	90%	90%		80%	80%	80%					
CC[C@H](C)[C@H](NC(=O)CC1CCC(=O)N1Cc1cccc(F)c1F)C(=O)O (single isomer, unassigned) [Example I-011]	80%	90%	80%		90%	80%				90%	
COC(=O)[C@H](Cc1c[nH]cn1)NC(=O)CC1CCC(=O)N1Cc1cccc(F)c1F (single isomer, unassigned) [Example I-050]						80%					
O=C(CC1CCC(=O)N1Cc1cccc(F)c1F)NC(Cc1ccccc1)C(=O)O (mixture of isomers) [Example I-044]	80%	90%				90%	90%		80%		80%
